Biological target: FXa (Homo sapiens, UniProt P00742)
Experiment: Factor Xa inhibition (FXa-IC50)
Format: biochemical
Text: The inhibition of factor Xa by the compounds according to the invention and the measurement of the anticoagulant and antithrombotic activity can be determined by conventional in-vitro or in-vivo methods. A suitable method is described, for example, by J. Hauptmann et al. in Thrombosis and Haemostasis 1990, 63, 220-223.
The inhibition of factor Xa can be measured, for example by the method of T. Hara et al. in Thromb. Haemostas. 1994, 71, 314-319.

Sequence of FXa (P00742 235-488 limits assumed): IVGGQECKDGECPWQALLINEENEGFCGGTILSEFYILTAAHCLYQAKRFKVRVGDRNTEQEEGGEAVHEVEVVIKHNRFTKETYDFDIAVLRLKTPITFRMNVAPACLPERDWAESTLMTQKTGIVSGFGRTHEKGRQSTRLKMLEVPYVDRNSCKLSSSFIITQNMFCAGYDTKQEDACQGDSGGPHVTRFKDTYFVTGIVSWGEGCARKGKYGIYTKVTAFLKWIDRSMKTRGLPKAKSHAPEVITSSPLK
Sequence of FXa (P00742 41-179 limits assumed): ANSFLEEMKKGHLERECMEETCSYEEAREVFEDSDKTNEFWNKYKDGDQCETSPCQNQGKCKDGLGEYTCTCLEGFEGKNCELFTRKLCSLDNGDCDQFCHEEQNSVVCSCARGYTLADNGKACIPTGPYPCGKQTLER

IC50 | SMILES
420 nM | Cc1cc(NC(=O)Nc2ccncc2NC(=O)Nc2ccc(Cl)cc2)ccc1N1CCOCC1=O [Compound B0, 1-(4-Chlorophenyl)-3-(4-{3-[3-methyl-4-(3-oxomorpholin-4-yl)-phenyl]ureido}pyridin-3-yl)urea]
12 nM | Cc1cc(NC(=O)Nc2cc(O)ccc2NC(=O)Nc2ccc(Cl)cc2)ccc1N1CCOCC1=O [Compound A1, 1-(4-chlorophenyl)-3-(4-hydroxy-2-{3-[3-methyl-4-(3-oxo-morpholin-4-yl)phenyl]ureido}phenyl)urea]
